Reference: US20260364101A1, “OLEUROPEIN IN THE MANAGEMENT OF CANCER” (FUNDACIÓN MIGUEL SERVET, priority 2023, published 2026)

Assays:
[1] = test system: MDSC and CD3 T cells; settings: related art; cited from earlier work
[2] = test system: CD4 T cells; assay: mixed lymphocyte reaction (MLR) with MDSCs as stimulator cells (FIG. 1c,d); format: cell-based, mouse; settings: treated MDSCs as stimulators; 5 days
Method: (§1) MLR were carried out following standard procedures. Briefly, 100,000 MDSCs or TAMs from C57BL/6 mice were co-cultured in 96-well plates with 100,000 lymphocytes from BALB/c mice. Co-cultured cells were treated with 50 µM oleuropein and compared with control vehicle. After 5 days, T-lymphocyte activation, differentiation and proliferation were assessed by flow cytometry. T-cell activation and proliferation markers (Ki-67) and pro-inflammatory cytokine production (IL-2 and IFNγ) were evaluated by flow cytometry in CD4 and CD8 T cells as described before.
(§2) Surface and intracellular staining were carried out as described before with the following fluorochrome-conjugated antibody clones: AF488 anti-CD49d (R1-2), PE anti-CD4 (GK1.5), APCanti-CD8(53-6.7), brilliant Violet 510™ anti-I-A/I-E (M5/114.15.2,PE/Cyanine7anti-Ly-6G (1A8), and APC anti-CD80 (16-10A1) (Biolegend), FITC anti-IL-12 (C15.6) and BV421 anti-IL-2 (JES6-5H4) (BD Bioscience), APC-Vio® 770 anti-Ly-6C (REA796), PE REAfinity™ anti-F4/80 (REA126), and APC anti-CD68 (REA886) (Miltenyi), PerCP-Cyanine5.5 Anti-Human/Mouse CD11b (M1/70) (Tonbo), and AF488 anti-IFNγ (Clone XMG1.2) (BD Pharmigen). For human cells, it was used the following fluorochrome-conjugated antibodies: PerCP-Cy5.5-anti-CD11b (integrina alfa M) (M1/70), Violet Fluor 450 anti-CD14 antibody (61D3) (Tonbo), PE anti-CD115 (CSF-1R) (9-4D2-1E4) (Biolegend), PE-Cy™7 anti-CD11c (Clone B-ly6) (BD Bioscience), and APC anti-HLA-DR (REA517) (Miltenyi).

[3] = test system: MDSCs; assay: ex vivo differentiated MDSCs treated with compound, marker expression by flow cytometry (FIG. 1a); format: cell-based, mouse; settings: BML-275 500 nM alone or with oleuropein 50 μM; MDSCs
Method: (§3) Immunosuppressive myeloid cell subsets resembling tumor-infiltrating subsets (g-MDSCs, m-MDSCs and TAMs) were differentiated from mouse bone marrow following published procedures using conditioning medium produced by LLC tumor cells stably expressing GMCSF and MCSF cells. g- and m-MDSCs were purified using the myeloid-derived suppressor cell isolation kit (Miltenyi Biotec, Bergisch, Germany) according to manufacturer's recommendations. MDSCs and TAMs were seeded with 500 nM BML-275 or 50 μM oleuropein and incubated for seven days.
as §2
(§4) Data were collected using the FACSCanto Flow Cytometer (BD Biosciences) for ex vivo and in vitro experiments at Navarrabiomed Biomedical Research Center and Cyroflex LX flow cytometer (Beckman Counter). Data were analyzed with Flowjo.

[4] = test system: CD4 T cells; assay: mixed lymphocyte reaction (MLR) with TAMs as stimulator cells (FIG. 1c,d); format: cell-based, mouse; settings: treated TAMs as stimulators; 5 days
Method: as §1
as §2, with “For human cells, it was used the following fluorochrome-conjugated antibodies: PerCP-Cy5.5-anti-CD11b (integrina alfa M) (M1/70), Violet Fluor 450 anti-CD14 antibody (61D3) (Tonbo), PE anti-CD115 (CSF-1R) (9-4D2-1E4) (Biolegend), PE-Cy™7 anti-CD11c (Clone B-ly6) (BD Bioscience), and APC anti-HLA-DR (REA517) (Miltenyi).” left out

[5] = test system: TAMs; assay: ex vivo differentiated TAMs treated with compound, marker expression by flow cytometry (FIG. 1b); format: cell-based, mouse; settings: BML-275 500 nM
Method: as §3, §2, §4

Structure (SMILES): Nc1ccn([C@@H]2O[C@H](CO)[C@@H](O)C2(F)F)c(=O)n1 [gemcitabine]
- effect on MDSC and CD3 T cells [1]: simultaneously reduces the MDSC and the CD3 T cells

Structure (SMILES): c1cc(-c2cnn3cc(-c4ccc(OCCN5CCCCC5)cc4)cnc23)ccn1 [BML-275, reference compound]
- CD4 T cell stimulation assessed by IFNγ and IL-2 production [2]: weaker
- expression of CD49d [3]: reduced
- CD4 T cell stimulation assessed by IFNγ and IL-2 production [4]: weaker
- CD68 (M1 marker) ([5]; AMPK inhibition in TAMs): increased
- cells co-expressing MHC-II and CD80 ([5]; oleuropein 50 μM, TAMs): significant elevation
